From ChEMBL document CHEMBL1132855, “Modeling directed design and biological evaluation of quinazolinones as non-peptidic growth hormone secretagogues” (Bioorg Med Chem Lett, 2000) come the findings set out here.

Chain of Growth hormone secretagogue receptor type 1 (Q92847 whole entry): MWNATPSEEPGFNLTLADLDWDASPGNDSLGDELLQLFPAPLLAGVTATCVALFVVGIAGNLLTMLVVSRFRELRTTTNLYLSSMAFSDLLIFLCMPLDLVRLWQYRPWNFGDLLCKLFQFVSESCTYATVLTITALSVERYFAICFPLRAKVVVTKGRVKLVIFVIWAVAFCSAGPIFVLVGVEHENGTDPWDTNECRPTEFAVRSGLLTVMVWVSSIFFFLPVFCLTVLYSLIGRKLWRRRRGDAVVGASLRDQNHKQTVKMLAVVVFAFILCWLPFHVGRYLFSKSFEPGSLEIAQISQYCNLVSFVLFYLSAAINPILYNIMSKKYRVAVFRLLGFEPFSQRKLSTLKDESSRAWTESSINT

The species entered for one experiment is Rattus norvegicus. Description: The effective concentration against rat pituitary cell GH release assay. The experiment is classed as functional. As to conditions: Pituitary gland cell.
For the compound `NCCCCCCNC(=O)Cn1c(CCc2ccccc2)nc2ccc(-c3ccccc3)cc2c1=O`, the IC50 was 630 nM.

Another experiment concerns the target Growth hormone secretagogue receptor type 1 (Homo sapiens, UniProt Q92847). Description: Binding affinity for human growth hormone GH secretagogue (hGHsr) receptor.
Conditions: not given
`NCCCCCNC(=O)Cn1c(-c2ccc3ccccc3c2)nc2ccc(Br)cc2c1=O` had a half-maximal inhibitory concentration (IC50) of 1400 nM.

Take `NCCCCCNC(=O)Cn1c(CCc2ccccc2)nc2ccc(-c3ccccc3)cc2c1=O`: the IC50 is 48 nM.

`NCCCCCCNC(=O)Cn1c(-c2ccc3ccccc3c2)nc2ccc(Br)cc2c1=O` came in with an IC50 of 960 nM.

On to `NCCCCCNC(=O)Cn1c(-c2ccc3ccccc3c2)nc2ccc(-c3ccccc3)cc2c1=O`, for which the IC50 worked out at 340 nM.

For `NCCCCCCNC(=O)Cn1c(CCc2ccccc2)nc2ccc(Br)cc2c1=O`, the IC50 is 67 nM.

Compound `COC(=O)C(CCCCN)NC(=O)Cn1c(-c2ccc3ccccc3c2)nc2ccc(Cl)cc2c1=O` (stereo unspecified) returned an IC50 of 3500 nM.

With `NCCCCCNC(=O)Cn1c(CCc2ccccc2)nc2ccc(Br)cc2c1=O`, the IC50 is 340 nM.

As to `NCCCCCCNC(=O)Cn1c(CCc2ccccc2)nc2ccc(-c3ccccc3)cc2c1=O`, the IC50 was determined as 16 nM.

`NCCCCCCNC(=O)Cn1c(-c2ccc3ccccc3c2)nc2ccc(-c3ccccc3)cc2c1=O` gave an IC50 of 200 nM.

As for `CN1N=C2CCN(C(=O)[C@@H](COCc3ccccc3)NC(=O)C(C)(C)N)C[C@@]2(Cc2ccccc2)C1=O` [CAPROMORELIN], the IC50 is 3000 nM.
